The text below walks through data of US11325900B2, “5-(pyrimidin-4-yl)thiazol-2-yl urea derivatives as therapeutic agents” (AUCENTRA HOLDINGS PTY LTD, priority 2018, dated 2022).

Experiment [1] relates to acute myeloid leukaemia (AML) cell lines. The settings on record: background; cited from earlier work.
For experiment [2], the system named is mouse model of AML. The settings on record: background; cited from earlier work.
The subject of experiment [3] is MV-4-11. Put plainly: Cell viability assay (resazurin, leukemia cell lines), 72 h growth inhibition. In kind it is cell-based. The settings on record: Homo sapiens, MV4-11, MV-4-11 cells. The text has this: (§1) Compounds from Example 1 may be subjected to a standard MTT (3-(4,5-dimethylthiazol-2-yl)-2,5-diphenyltetrazolium bromide) and resazurin assays on solid tumour cell lines and leukemia cell lines, respectively, as previously reported (Wang S et al., J Med Chem 47:1662-1675, 2004 and Diab S e al. CheMedChem 9:962-972, 2014). Compound concentrations required to inhibit 50% of cell growth (GI50) can be calculated using non-linear regression analysis.

The target of experiment [4] is T1, CDK8/CycC (Homo sapiens, UniProt P49336).
T1 construct: purchased ProQinase GmbH, Freiburg, Germany
T1 sequence (P49336 whole entry): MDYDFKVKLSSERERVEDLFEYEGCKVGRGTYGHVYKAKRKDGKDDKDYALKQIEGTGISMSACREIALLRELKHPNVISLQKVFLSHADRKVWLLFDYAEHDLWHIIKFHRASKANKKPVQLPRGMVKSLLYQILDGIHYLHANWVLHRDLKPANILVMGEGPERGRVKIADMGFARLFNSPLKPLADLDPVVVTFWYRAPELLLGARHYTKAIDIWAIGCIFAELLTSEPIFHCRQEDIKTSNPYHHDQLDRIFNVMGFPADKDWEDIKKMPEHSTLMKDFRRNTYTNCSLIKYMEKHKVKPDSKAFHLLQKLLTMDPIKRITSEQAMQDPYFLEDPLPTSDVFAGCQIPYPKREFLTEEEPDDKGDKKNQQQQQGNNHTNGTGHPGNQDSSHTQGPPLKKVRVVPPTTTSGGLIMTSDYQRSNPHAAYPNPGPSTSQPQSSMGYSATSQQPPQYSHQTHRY
T1 sequence (P24863 whole entry partner): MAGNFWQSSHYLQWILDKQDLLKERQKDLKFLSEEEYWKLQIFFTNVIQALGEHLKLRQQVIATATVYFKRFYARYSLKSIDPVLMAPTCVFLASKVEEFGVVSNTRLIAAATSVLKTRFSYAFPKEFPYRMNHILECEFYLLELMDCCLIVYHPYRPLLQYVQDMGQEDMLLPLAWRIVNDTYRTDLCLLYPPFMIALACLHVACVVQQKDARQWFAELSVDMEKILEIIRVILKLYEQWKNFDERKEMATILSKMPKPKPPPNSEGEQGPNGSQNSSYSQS
Kind of experiment: Radiometric protein kinase assay (33PanQinase Activity Assay, ProQinase). The format is biochemical. The settings on record: 1.0 μM ATP, 1.0 μg/50 μL substrate RBER-IRStide, duplicate measurements, read-out: CDK8 Kinase inhibition IC50. Summed up: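 33P radiometric kinase assay on CDK8/CycC with 1.0 μM ATP and 1.0 μg/50 μL RBER-IRStide substrate. IC50 values came from duplicate measurements. Ki was calculated from IC50 and Km(ATP).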

Experiment [5] relates to HCT-116. Kind of experiment: Cell viability assay (MTT, solid tumour cell lines), 72 h growth inhibition. In kind it is cell-based. The settings on record: Homo sapiens, HCT-116 cells.
From the text: as §1

cortistatin A: the “Suppression of cell growth (in words)” value in experiment [1] is “suppress cell growth”. In addition, in experiment [2], the “Anticancer activity (in words)” value is reported as “shows anticancer activity”.

For `CNc1nccc(-c2sc(NC(=O)Nc3cccc(S(=O)(=O)C(F)(F)F)c3)nc2C)n1` [Compound 23, 1-(4-Methyl-5-(2-(methylamino)pyrimidin-4-yl)-thiazol-2-yl)-3-(3-((trifluoromethyl)-sulfonyl)phenyl)urea], the results for the concentration for 50% growth inhibition (GI50) in experiment [3] and in experiment [5] were 3.17 ± 0.53 µM and 4.96 ± 0.12 µM, respectively. Besides, the IC50 in experiment [4] amounted to 26 nM.

Consider `CNc1nccc(-c2sc(NC(=O)Nc3cccc(SC)c3)nc2C)n1` [Compound 21, 1-(4-Methyl-5-(2-(methylamino)-pyrimidin-4-yl)thiazol-2-yl)-3-(3-(methylthio)phenyl)urea], for which the 50% growth inhibitory concentration (GI50) in experiment [3] was 3.35 ± 0.19 µM; in experiment [5] it was 6.13 ± 0.91 µM. The half-inhibitory concentration (IC50) in experiment [4] was determined as 9 nM.

For the compound `CNc1nccc(-c2sc(NC(=O)Nc3ccc(F)c(C(F)(F)F)c3)nc2C)n1` [Compound 25, 1-(4-Fluoro-3-(trifluoromethyl)phenyl)-3-(4-methyl-5-(2-(methylamino)-pyrimidin-4-yl)thiazol-2-yl)urea], the GI50 in experiment [3] was determined as 2.23 ± 0.14 µM; in experiment [5], 5.85 ± 1.14 µM. In addition, in experiment [4], the IC50 came to 13 nM.

Turning to `CNc1nccc(-c2sc(NC(=O)Nc3ccc(C)c(C(F)(F)F)c3)nc2C)n1` [Compound 26, 1-(4-Methyl-3-(trifluoromethyl)-phenyl)-3-(4-methyl-5-(2-(methylamino)pyrimidin-4-yl)thiazol-2-yl)urea], the concentration for 50% growth inhibition (GI50) amounted to 2.56 ± 0.49 µM in experiment [3] and 5.1 ± 0.66 µM in experiment [5]. Also, the IC50 in experiment [4] was 15 nM.

`CCN1CCN(Cc2ccc(NC(=O)Nc3nc(C)c(-c4ccnc(NC)n4)s3)cc2C(F)(F)F)CC1` [Compound 33, 1-(4-((4-Ethylpiperazin-1-yl)methyl)-3-(trifluoromethyl)phenyl)-3-(4-methyl-5-(2-(methylamino)-pyrimidin-4-yl)thiazol-2-yl)urea]: the GI50 in experiment [3] is less than 0.001 µM; in experiment [5], 0.457 ± 0.03 µM. Moreover, the IC50 in experiment [4] is 10 nM.

With `Cc1nc(NC(=O)Nc2cccc(Cl)c2)sc1-c1ccnc(N(C)C)n1` [Compound 47, 1-(3-Chlorophenyl)-3-(5-(2-(dimethylamino)pyrimidin-4-yl)-4-methylthiazol-2-yl)urea], the GI50 in experiment [3] turned out to be 5.28 ± 0.15 µM; in experiment [5], 5.77 ± 0.42 µM. In experiment [4], the IC50 was 38 nM.

`CNc1nccc(-c2sc(NC(=O)Nc3ccc(CN4CCOCC4)c(C(F)(F)F)c3)nc2C)n1` [Compound 37, 1-(4-Methyl-5-(2-(methylamino)-pyrimidin-4-yl)thiazol-2-yl)-3-(4-(morpholinomethyl)-3-(trifluoromethyl)phenyl)urea]: the results for the GI50 in experiment [3] and in experiment [5] were 0.068 ± 0.03 µM and 7.84 ± 0.39 µM, respectively. For the same compound, the IC50 in experiment [4] was found to be 9 nM.

Turning to `CNc1nccc(-c2sc(NC(=O)Nc3cccc(C)c3)nc2C)n1` [Compound 13, 1-(4-Methyl-5-(2-(methylamino)pyrimidin-4-yl)thiazol-2-yl)-3-(m-tolyl)urea], the values for the 50% growth inhibitory concentration (GI50) in experiment [3] and in experiment [5] were 3.9 ± 1.1 µM and 2.77 ± 0.21 µM, respectively. The IC50 in experiment [4] is 6 nM.

As for `CNc1nccc(-c2sc(NC(=O)Nc3ccc(Cl)c(C)c3)nc2C)n1` [Compound 30, 1-(4-Chloro-3-methylphenyl)-3-(4-methyl-5-(2-(methylamino)-pyrimidin-4-yl)thiazol-2-yl)urea], the results for the GI50 in experiment [3] and in experiment [5] were 4.39 ± 1.02 µM and 2.35 ± 3.21 µM, respectively. Further, in experiment [4], the half-inhibitory concentration (IC50) turned out to be 8 nM.

For the compound `CNc1nccc(-c2sc(NC(=O)Nc3ccc(C(F)(F)F)c(C(F)(F)F)c3)nc2C)n1` [Compound 27, 1-(3,4-Bis(trifluoromethyl)phenyl)-3-(4-methyl-5-(2-(methylamino)-pyrimidin-4-yl)thiazol-2-yl)urea], the GI50 in experiment [3] turned out to be 4.16 ± 0.8 µM; in experiment [5] it was 5.64 ± 0.32 µM. Also, in experiment [4], the half-maximal inhibitory concentration (IC50) came out at 53 nM.

With `Cc1nc(NC(=O)Nc2cccc(C(F)(F)F)c2)sc1-c1ccnc(N(C)C)n1` [Compound 46, 1-(5-(2-(Dimethylamino)pyrimidin-4-yl)-4-methylthiazol-2-yl)-3-(3-(trifluoromethyl)phenyl)urea], the GI50 in experiment [3] was 5.5 ± 0.49 µM; in experiment [5] it was 35 ± 11.8 µM. Moreover, the half-inhibitory concentration (IC50) in experiment [4] was 41 nM.

Turning to `CNc1nccc(-c2sc(NC(=O)Nc3cccc(C(C)C)c3)nc2C)n1` [Compound 17, 1-(3-Isopropylphenyl)-3-(4-methyl-5-(2-(methylamino)pyrimidin-4-yl)thiazol-2-yl)urea], the GI50 in experiment [3] turned out to be 3.51 ± 0.79 µM; in experiment [5] it was 5.97 ± 0.723 µM. Moreover, the concentration for half-maximal inhibition (IC50) in experiment [4] worked out at 15 nM.
